In patent publication EP3046573B1, “AMYLIN ANALOGUES” (Zealand Pharma A/S, priority 2013, dated 2015):
pEC50: −log10 of the molar value. Numbered stars: 1 amine (or outer) side, 2 acyl side, 3 side chain; on linkers, the order of the positions; unused ones are H or OH. Bridge positions count the residues as written; N and C are the ends. Square brackets hold non-standard residues; d marks the D form. Peptide text beside a SMILES is read from it. * marks the point of attachment. C20 diacid = O=C(O)CCCCCCCCCCCCCCCCCCC(=O)*; γGlu = O=C(O)[C@H](CCC(=O)[*:2])N[*:1]; NMeI = CC[C@H](C)[C@H](NC)C(=O)O; Sar = CNCC(=O)O

Experiments:
[1] = target: T1, human amylin receptor 3 (hAMYR3) consisting of hCTR2 co-expressed with human Receptor Activity Modifying Protein 3 (hRAMP3) (Homo sapiens, UniProt O60896+P30988); assay: hAMYR3 assay: induction of cAMP (AlphaScreen cAMP Assay kit) in COS7 cells expressing hAMYR3; format: cell-based; conditions: cAMP induction in COS7 cells expressing hAMYR3; average of a minimum of 3 determinations; read-out: hAMY R3 EC50
T1 construct: expressed in transfected cells
T1 sequence (P30988 25-474): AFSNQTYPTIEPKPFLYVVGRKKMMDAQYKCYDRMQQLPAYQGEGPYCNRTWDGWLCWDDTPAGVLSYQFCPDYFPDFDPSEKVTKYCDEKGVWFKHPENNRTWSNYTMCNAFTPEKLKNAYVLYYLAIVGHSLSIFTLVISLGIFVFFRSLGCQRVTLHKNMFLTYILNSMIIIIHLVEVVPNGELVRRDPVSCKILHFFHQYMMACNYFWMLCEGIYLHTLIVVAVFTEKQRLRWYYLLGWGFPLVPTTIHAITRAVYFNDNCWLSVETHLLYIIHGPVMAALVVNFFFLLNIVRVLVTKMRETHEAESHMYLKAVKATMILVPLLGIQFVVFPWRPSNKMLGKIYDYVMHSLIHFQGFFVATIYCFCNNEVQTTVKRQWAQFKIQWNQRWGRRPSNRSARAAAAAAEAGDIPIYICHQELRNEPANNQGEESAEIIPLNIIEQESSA
T1 sequence (O60896 24-148 partner): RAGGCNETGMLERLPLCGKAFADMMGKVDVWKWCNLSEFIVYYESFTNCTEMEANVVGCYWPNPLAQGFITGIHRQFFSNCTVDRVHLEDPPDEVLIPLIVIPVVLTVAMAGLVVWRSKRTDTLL
In short: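 Stable COS7 clone co-expressing hCTR2 and hRAMP3, stimulated 15 min at 37° C with increasing peptide in Tyrode buffer pH 7.4 with 100 µM IBMX and 0.1% casein. cAMP measured by AlphaScreen after lysis; EC50 and % efficacy versus pramlintide from 4PL fit.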

[2] = target: T2, human calcitonin receptor (hCTR2) (Homo sapiens, UniProt P30988); assay: hCTR2 assay: induction of cAMP (AlphaScreen cAMP Assay kit) in COS7 cells expressing hCTR2; format: cell-based; conditions: cAMP induction in COS7 cells expressing hCTR2; average of a minimum of 3 determinations; read-out: hCTR2 EC50
T2 construct: expressed in transfected cells
T2 sequence (P30988 25-474): T1 sequence (P30988 25-474)
In short: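 Stable RAMP-naive COS7 clone expressing hCTR2 was stimulated with increasing peptide concentrations in Tyrode buffer (pH 7.4) with 100 µM IBMX and 0.1% casein for 15 min at 37° C. Cells were lysed and cAMP measured by AlphaScreen. EC50 and efficacy relative to pramlintide came from 4PL curve fits.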

[3] = Solubility assessment (turbidity absorbance at 325 nm); format: physicochemical; conditions: stock 2 mg/ml diluted 1:1, ambient temperature (typically 25°C), n=1; for Solubility, Acetate buffer pH 4: 100 mM acetate buffer pH 4.0; for Solubility, Acetate buffer pH 5: 100 mM acetate buffer pH 5.0; for Solubility, Histidine buffer pH 6: 100 mM histidine buffer pH 6.0; for Solubility, Histidine buffer pH 7: 100 mM histidine buffer pH 7.0; for Solubility, Phosphate buffer pH 6: 100 mM phosphate buffer pH 6.0; for Solubility, Phosphate buffer pH 7: 100 mM phosphate buffer pH 7.0; for Solubility, Phosphate buffer pH 7.5: 100 mM phosphate buffer pH7.5
In short: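 Peptide stock (2 mg/ml, water pH 2.5) diluted 1:1 into 100 mM acetate (pH 4.0, 5.0), histidine (pH 6.0, 7.0) or phosphate (pH 6.0–7.5) buffer; absorbance at 325 nm read at about 25°C, n=1. A325 ≤ 0.02 taken as solubility ≥ 1 mg/ml.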

| pEC50 [1] | pEC50 [2] | Solubility, Acetate buffer pH 4 [3] | Solubility, Acetate buffer pH 5 [3] | Solubility, Histidine buffer pH 6 [3] | Solubility, Histidine buffer pH 7 [3] | Solubility, Phosphate buffer pH 6 [3] | Solubility, Phosphate buffer pH 7 [3] | Solubility, Phosphate buffer pH 7.5 [3] | SMILES |
| --- | --- | --- | --- | --- | --- | --- | --- | --- | --- |
| 9.46 | 9.82 | SS (SS indicates solubility ≥ 1mg/ml) | SS (SS indicates solubility ≥ 1mg/ml) | SS (SS indicates solubility ≥ 1mg/ml) | SS (SS indicates solubility ≥ 1mg/ml) | SS (SS indicates solubility ≥ 1mg/ml) | SS (SS indicates solubility ≥ 1mg/ml) | SS (SS indicates solubility ≥ 1mg/ml) | CC[C@H](C)[C@@H](C(=O)N[C@@H](CC(C)C)C(=O)N[C@@H](CO)C(=O)N[C@@H](CO)C(=O)N[C@H](C(=O)N[C@@H](CCC(=O)O)C(=O)N[C@H](C(=O)NCC(=O)N[C@@H](CO)C(=O)N[C@@H](CCC(=O)O)C(=O)N[C@H](C(=O)N1CCC[C@H]1C(N)=O)[C@@H](C)O)C(C)C)[C@@H](C)O)N(C)C(=O)[C@H](C)NC(=O)CN(C)C(=O)[C@H](Cc1ccccc1)NC(=O)[C@H](CO)NC(=O)[C@H](CO)NC(=O)[C@H](CO)NC(=O)[C@H](CO)NC(=O)[C@H](CCCNC(=N)N)NC(=O)[C@H](Cc1c[nH]cn1)NC(=O)[C@H](CC(C)C)NC(=O)[C@H](Cc1ccccc1)NC(=O)[C@H](CCC(=O)O)NC(=O)[C@H](C)NC(=O)[C@H](CC(C)C)NC(=O)[C@H](CCCNC(=N)N)NC(=O)[C@H](CO)NC(=O)[C@@H](NC(=O)[C@H](C)NC(=O)[C@@H]1CSSC[C@H](NC(=O)[C@H](CCCNC(=N)N)NC(=O)CC[C@H](NC(=O)CCCCCCCCCCCCCCCCCCC(=O)O)C(=O)O)C(=O)N[C@@H](CCC(=O)O)C(=O)N[C@@H]([C@@H](C)O)C(=O)N[C@@H](C)C(=O)N[C@@H]([C@@H](C)O)C(=O)N1)[C@@H](C)O [Compound 139, [19CD]-isoGlu-RC()ETATC()ATSRLAEFLHRSSSSF-Gly(Me)-A-Ile(Me)-LSSTEVGSETP-NH2] ({C20 diacid-γGlu}-RCETATCATSRLAEFLHRSSSSF[Sar]A[NMeI]LSSTEVGSETP-NH2; disulfide 2-7) |
| 9.89 | 9.96 | SS (SS indicates solubility ≥ 1mg/ml) | SS (SS indicates solubility ≥ 1mg/ml) | SS (SS indicates solubility ≥ 1mg/ml) | SS (SS indicates solubility ≥ 1mg/ml) | SS (SS indicates solubility ≥ 1mg/ml) | SS (SS indicates solubility ≥ 1mg/ml) | SS (SS indicates solubility ≥ 1mg/ml) | CC[C@H](C)[C@@H](C(=O)N[C@@H](CC(C)C)C(=O)N[C@@H](CO)C(=O)N[C@@H](CO)C(=O)N[C@H](C(=O)N[C@@H](CCC(=O)O)C(=O)N[C@H](C(=O)NCC(=O)N[C@@H](CO)C(=O)N[C@@H](CCC(=O)O)C(=O)N[C@H](C(=O)N1CCC[C@H]1C(N)=O)[C@@H](C)O)C(C)C)[C@@H](C)O)N(C)C(=O)[C@H](C)NC(=O)CN(C)C(=O)[C@H](Cc1ccccc1)NC(=O)[C@H](CO)NC(=O)[C@H](CO)NC(=O)[C@H](CO)NC(=O)[C@H](CO)NC(=O)[C@H](CCCNC(=N)N)NC(=O)[C@H](Cc1c[nH]cn1)NC(=O)[C@H](CC(C)C)NC(=O)[C@H](Cc1ccccc1)NC(=O)[C@H](CCC(=O)O)NC(=O)[C@H](C)NC(=O)[C@H](CC(C)C)NC(=O)[C@H](CCCNC(=N)N)NC(=O)[C@H](CO)NC(=O)[C@@H](NC(=O)[C@H](C)NC(=O)[C@@H]1CSSC[C@H](NC(=O)[C@H](CCCNC(=N)N)NC(=O)CC[C@H](NC(=O)CCCCCCCCCCCCCCCCCCC(=O)O)C(=O)O)C(=O)NCC(=O)N[C@@H]([C@@H](C)O)C(=O)N[C@@H](C)C(=O)N[C@@H]([C@@H](C)O)C(=O)N1)[C@@H](C)O [Compound 141, [19CD]-isoGlu-RC()GTATC()ATSRLAEFLHRSSSSF-Gly(Me)-A-Ile(Me)-LSSTEVGSETP-NH2] ({C20 diacid-γGlu}-RCGTATCATSRLAEFLHRSSSSF[Sar]A[NMeI]LSSTEVGSETP-NH2; disulfide 2-7) |
| 9.36 | 9.59 | SS (SS indicates solubility ≥ 1mg/ml) | SS (SS indicates solubility ≥ 1mg/ml) | SS (SS indicates solubility ≥ 1mg/ml) | SS (SS indicates solubility ≥ 1mg/ml) | SS (SS indicates solubility ≥ 1mg/ml) | SS (SS indicates solubility ≥ 1mg/ml) | SS (SS indicates solubility ≥ 1mg/ml) | CC[C@H](C)[C@@H](C(=O)N[C@@H](CC(C)C)C(=O)N[C@@H](CO)C(=O)N[C@@H](CO)C(=O)N[C@H](C(=O)N[C@@H](CCC(=O)O)C(=O)N[C@H](C(=O)NCC(=O)N[C@@H](CO)C(=O)N[C@@H](CCC(=O)O)C(=O)N[C@H](C(=O)N1CCC[C@H]1C(N)=O)[C@@H](C)O)C(C)C)[C@@H](C)O)N(C)C(=O)[C@H](C)NC(=O)CN(C)C(=O)[C@H](Cc1ccccc1)NC(=O)[C@H](CO)NC(=O)[C@H](CO)NC(=O)[C@H](CO)NC(=O)[C@H](CO)NC(=O)[C@H](CCCNC(=N)N)NC(=O)[C@H](Cc1c[nH]cn1)NC(=O)[C@H](CC(C)C)NC(=O)[C@H](Cc1ccccc1)NC(=O)[C@H](CCC(=O)O)NC(=O)[C@H](C)NC(=O)[C@H](CC(C)C)NC(=O)[C@H](CCCNC(=N)N)NC(=O)[C@@H]1CCCN1C(=O)[C@@H](NC(=O)[C@H](C)NC(=O)[C@@H]1CSSC[C@H](NC(=O)[C@H](CCCNC(=N)N)NC(=O)CC[C@H](NC(=O)CCCCCCCCCCCCCCCCCCC(=O)O)C(=O)O)C(=O)N2CCC[C@H]2C(=O)N[C@@H]([C@@H](C)O)C(=O)N[C@@H](C)C(=O)N[C@@H]([C@@H](C)O)C(=O)N1)[C@@H](C)O [Compound 143, [19CD]-isoGlu-RC()PTATC()ATPRLAEFLHRSSSSF-Gly(Me)-A-Ile(Me)-LSSTEVGSETP-NH2] ({C20 diacid-γGlu}-RCPTATCATPRLAEFLHRSSSSF[Sar]A[NMeI]LSSTEVGSETP-NH2; disulfide 2-7) |
| 9.62 | 9.96 | SS (SS indicates solubility ≥ 1mg/ml) | SS (SS indicates solubility ≥ 1mg/ml) | SS (SS indicates solubility ≥ 1mg/ml) | SS (SS indicates solubility ≥ 1mg/ml) | SS (SS indicates solubility ≥ 1mg/ml) | SS (SS indicates solubility ≥ 1mg/ml) | SS (SS indicates solubility ≥ 1mg/ml) | CC[C@H](C)[C@@H](C(=O)N[C@@H](CC(C)C)C(=O)N[C@@H](CO)C(=O)N[C@@H](CO)C(=O)N[C@H](C(=O)N[C@@H](CCC(=O)O)C(=O)N[C@H](C(=O)NCC(=O)N[C@@H](CO)C(=O)N[C@@H](CCC(=O)O)C(=O)N[C@H](C(=O)N1CCC[C@H]1C(N)=O)[C@@H](C)O)C(C)C)[C@@H](C)O)N(C)C(=O)[C@H](C)NC(=O)CN(C)C(=O)[C@H](Cc1ccccc1)NC(=O)[C@H](CO)NC(=O)[C@H](CO)NC(=O)[C@H](CO)NC(=O)[C@H](CO)NC(=O)[C@H](CCCNC(=N)N)NC(=O)[C@H](Cc1c[nH]cn1)NC(=O)[C@H](CC(C)C)NC(=O)[C@H](Cc1ccccc1)NC(=O)[C@H](CCC(=O)O)NC(=O)[C@H](C)NC(=O)[C@H](CC(C)C)NC(=O)[C@H](CCCNC(=N)N)NC(=O)[C@H](C)NC(=O)[C@@H](NC(=O)[C@H](C)NC(=O)[C@@H]1CSSC[C@H](NC(=O)[C@H](CCCNC(=N)N)NC(=O)CC[C@H](NC(=O)CCCCCCCCCCCCCCCCCCC(=O)O)C(=O)O)C(=O)N[C@@H](CO)C(=O)N[C@@H]([C@@H](C)O)C(=O)N[C@@H](C)C(=O)N[C@@H]([C@@H](C)O)C(=O)N1)[C@@H](C)O [Compound 144, [19CD]-isoGlu-RC()STATC()ATARLAEFLHRSSSSF-Gly(Me)-A-Ile(Me)-LSSTEVGSETP-NH2] ({C20 diacid-γGlu}-RCSTATCATARLAEFLHRSSSSF[Sar]A[NMeI]LSSTEVGSETP-NH2; disulfide 2-7) |
